Measurements published in US5985905A, “Indole derivatives for the treatment of osteoporosis” (priority 1996, dated 1999).

Key:
[1] = biological target: bafilomycin-sensitive ATPase in chicken osteoclasts; experiment: Inhibition of bafilomycin-sensitive ATPase activity in purified osteoclast membrane vesicles (Pi release); type: biochemical; settings: chicken osteoclast membranes, read-out: IC50 (μM) APase assay
Experimental: Preparation of crude bone microsomes from calcium-starved egg-laying hens. Vesicles were prepared from medullar bone obtained from tibiae and femurs of egg-laying hens which were calcium-starved for at least 15 days. Briefly, bone fragments were scraped with a 24 scalpel blade, suspended in 40 ml of isolation medium (0.2 M sucrose, 50 mM KCl, 10 mM Hepes, 1 mM EGTA, 2 mM dithiotheitrol, pH 7.4) and filtered through a 100 μm pore size nylon mesh. The whole procedure was performed at 4° C. After homogenisation in a potter (20 strokes) in 40 ml of isolation medium an initial centrifugation (6,500×gmax ×20 min) was performed to remove mitochondria and lysosomes. […] The protein content was determined using a Biorad colourimetric kit according to Bradford [M. Bradford, Ana. […]
Inhibition of bafilomycin-sensitive ATPase activity was assessed in purified membrane vesicles by measuring the release of inorganic phosphate (Pi) during 30 min of incubation at 37° C. in a 96-well plate either in the presence or in the absence of bafilomycin Al. […] Absorbance at 650 nm was measured after 2 min using a microplate reader. Results are expressed as μmol (Pi)×mg protein^-1 ×hour^-1 and, for each experiment, represent the mean±sem of triplicates.

[2] = system: osteoclast proton pump; settings: avian osteoclast membrane vesicles, ATP-driven acidification; cited from earlier work
[3] = system: osteoclast cultures; settings: cited from earlier work

Compound: O=C1OCCO/C1=C\C=C\c1cc2cc(Cl)c(Cl)cc2[nH]1 [Example 1, (2Z,4E) 3-[3-(5,6-Dichloro-1H-indol-2-yl)-2-propenyliden]-1,4-dioxan-2-one]
- IC50 [1]: 8.5 µM

Compound: CCN1C(=O)C=CC1=O [N-ethylmaleimide (NEM), N-ethylmaleimide]
- inhibition of proton transport [2]: inhibited

Compound: Cc1nc2c(OCc3ccccc3)cccn2c1CC#N [SCH 28080]
- inhibition of proton transport [2]: not inhibited

Compound: CO/C1=C\C(C)=C\[C@@H](C)[C@@H](O)[C@@H](C)C/C(C)=C/C=C/[C@H](OC)[C@@H]([C@@H](C)[C@@H](O)[C@H](C)[C@@]2(O)C[C@@H](O)[C@H](C)[C@@H](C(C)C)O2)OC1=O [bafilomycin A1]
- inhibition of proton transport [2]: inhibited
- inhibition of bone resorption [3]: able to inhibit bone resorption

Compound: COc1ccc2[nH]c([S+]([O-])Cc3ncc(C)c(OC)c3C)nc2c1 (centres unmarked) [omeprazole]
- inhibition of proton transport [2]: not inhibited

Compound: C[C@@H]1O[C@@H](O[C@H]2C[C@@H](O)[C@]3(CO)[C@H]4[C@H](O)C[C@]5(C)[C@@H](C6=CC(=O)OC6)CC[C@]5(O)[C@@H]4CC[C@]3(O)C2)[C@H](O)[C@H](O)[C@H]1O [ouabain]
- inhibition of proton transport [2]: not inhibited

Compound: [Na+].[Na+].[Na+].[O]=[V]([O-])([O-])[O-] [sodium orthovanadate]
- inhibition of proton transport [2]: not inhibited
